BindingDB's records for doi:10.1021/acs.jmedchem.8b00642 (Korea Institute of Science and Technology, 2018)

Biological target: 5-hydroxytryptamine receptor 7 (Homo sapiens, UniProt P34969)
Experiment: Displacement of [3H]LSD from human 5-HT7 receptor expressed in HEK cell membranes after 1.5 hrs by microbeta scintillation counting method

Sequence of 5-hydroxytryptamine receptor 7 (P34969 whole entry): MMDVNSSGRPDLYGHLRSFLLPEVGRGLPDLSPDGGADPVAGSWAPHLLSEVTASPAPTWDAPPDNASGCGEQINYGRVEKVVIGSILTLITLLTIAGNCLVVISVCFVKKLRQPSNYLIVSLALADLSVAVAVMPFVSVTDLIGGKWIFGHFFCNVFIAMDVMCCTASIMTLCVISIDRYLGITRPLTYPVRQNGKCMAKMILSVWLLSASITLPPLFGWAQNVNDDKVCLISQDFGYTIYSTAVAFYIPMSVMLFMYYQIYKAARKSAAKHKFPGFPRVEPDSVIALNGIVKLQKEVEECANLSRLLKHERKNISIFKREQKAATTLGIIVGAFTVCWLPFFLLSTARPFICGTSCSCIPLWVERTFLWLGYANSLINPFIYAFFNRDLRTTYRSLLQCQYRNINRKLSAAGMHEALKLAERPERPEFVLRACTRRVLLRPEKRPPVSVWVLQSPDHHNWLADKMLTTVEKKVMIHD

## Clc1ccc(-c2n[nH]c3c2CCNCC3)cc1
  Ki: 0.032 µM
